Structures can show the parent of a compound that is named as a salt. ± gives the standard deviation of the averaged measurements.
System: HepaRG
Assay: LDH release cytotoxicity, % of total lysis control; higher = more cytotoxic
Conditions: 48 h
Procedure, shortened: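 Single-lot HepaRG cells in collagen I-coated 96-well plates were treated for 48 h in serum-free induction medium containing 0.5% DMSO with test chemicals in eight-point half-log series up to 100 µM. For total lysis, wells received 0.1% Triton X. LDH in 50 µL spent medium was assayed by resorufin fluorescence with CytoTox-ONE. Percent cytotoxicity was normalized to the on-plate vehicle and total lysis controls, with duplicates averaged.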

CCOC(=O)CC(SP(=S)(OC)OC)C(=O)OCC (configuration not stated) [Malathion]
Conditions	LDH release cytotoxicity [%]
0.03162 µM	0.138 ± 0.34
0.1 µM	-0.944 ± 0.55
0.3162278 µM	-0.165 ± 0.55
1 µM	-0.829 ± 0.26
3.16228 µM	-0.0242 ± 0.075
10 µM	-0.216 ± 0.19
31.6228 µM	-0.432 ± 0.52
100 µM	0.626 ± 0.78

O=c1ccc(=O)[nH][nH]1 [Maleic hydrazide]
Conditions	LDH release cytotoxicity [%]
0.03162 µM	-0.979 ± 0.52
0.1 µM	-0.493 ± 0.19
0.3162278 µM	-1.74 ± 0.22
1 µM	-0.384 ± 0.92
3.16228 µM	-1.91 ± 0.55
10 µM	-1.15 ± 0.52
31.6228 µM	0.124 ± 0.07
100 µM	2.69 ± 1.4

O=C(O)CC(O)C(=O)O (configuration not stated) [Malic acid]
Conditions	LDH release cytotoxicity [%]
0.03162 µM	-1.2 ± 0.52
0.1 µM	-1.77 ± 0.018
0.3162278 µM	-1.39 ± 0.22
1 µM	-1.28 ± 1.3
3.16228 µM	-1.27 ± 0.26
10 µM	-1.41 ± 0.57
31.6228 µM	-1.33 ± 0.1
100 µM	0.326 ± 0.19

CC1OC=CC(=O)C1=O (configuration not stated) [Maltol]
Conditions	LDH release cytotoxicity [%]
0.032888 µM	-1.82 ± 0.089
0.104 µM	-1.46 ± 1.1
0.328877 µM	-2.18 ± 0.095
1.04 µM	-3.62 ± 0.59
3.28877 µM	-2.64 ± 0.45
10.4 µM	-1.92 ± 0.23
32.8877 µM	-1.627 ± 0.0032
104 µM	0.353 ± 0.45

S=C([S-])NCCNC(=S)[S-].S=C([S-])NCCNC(=S)[S-].[Mn+2].[Zn+2] [Mancozeb]
Conditions	LDH release cytotoxicity [%]
0.01581 µM	-1.38 ± 0.48
0.05 µM	-1.29 ± 0.95
0.1581139 µM	-2.2 ± 0.12
0.5 µM	-0.828 ± 0.04
1.5811388 µM	30.3 ± 1.4
5 µM	68.2 ± 0.83
15.8114 µM	72.55 ± 0.27
50 µM	77.11 ± 0.33

S=C(S)NCCNC(=S)S [Maneb]
Conditions	LDH release cytotoxicity [%]
0.031623 µM	-0.532 ± 1.1
0.1 µM	-3.72 ± 0.66
0.316228 µM	-2.09 ± 1.5
1 µM	-4.15 ± 0.23
3.16228 µM	25.2 ± 5.5
10 µM	75.5 ± 4.6
31.6228 µM	77.2 ± 2.5
100 µM	77.7 ± 3

CC#Cc1cc(C)nc(Nc2ccccc2)n1 [Mepanipyrim]
Conditions	LDH release cytotoxicity [%]
0.03162 µM	-1.35 ± 0.26
0.1 µM	-1.3 ± 0.77
0.3162278 µM	-1.45 ± 0.36
1 µM	-1.69 ± 0.92
3.16228 µM	-0.377 ± 0.77
10 µM	0.835 ± 1.1
31.6228 µM	2.41 ± 0.37
100 µM	11.4 ± 0.23

[Cl][Hg][Cl] [Mercuric chloride]
Conditions	LDH release cytotoxicity [%]
0.03162 µM	-0.633 ± 0.43
0.1 µM	0.0218 ± 0.9
0.3162278 µM	-0.338 ± 0.41
1 µM	-0.378 ± 0.19
3.16228 µM	0.165 ± 0.14
10 µM	-0.398 ± 0.26
31.6228 µM	-1.52 ± 0.15
100 µM	-4.6 ± 0.1

CS(=O)(=O)c1ccc(C(=O)C2C(=O)CCCC2=O)c([N+](=O)[O-])c1 [Mesotrione]
Conditions	LDH release cytotoxicity [%]
0.0320971 µM	0.286 ± 0.54
0.1015 µM	-0.676 ± 1.3
0.320971 µM	-1.35 ± 0.82
1.015 µM	-0.8 ± 0.14
3.2097118 µM	-0.694 ± 0.22
10.15 µM	-1.17 ± 0.99
32.0971 µM	-1.09 ± 0.39
101.5 µM	-1.76 ± 0.31

COCC(=O)N(c1c(C)cccc1C)C(C)C(=O)OC (configuration not stated) [Metalaxyl]
Conditions	LDH release cytotoxicity [%]
0.03162 µM	-1.86 ± 0.61
0.1 µM	-0.811 ± 0.78
0.3162278 µM	-0.303 ± 0.27
1 µM	-0.996 ± 0.099
3.16228 µM	-0.0482 ± 0.74
10 µM	-0.0413 ± 0.72
31.6228 µM	0.228 ± 0.89
100 µM	2.83 ± 2.6

CNC(=S)S [Metam-sodium hydrate]
Conditions	LDH release cytotoxicity [%]
0.03162 µM	-0.462 ± 0.042
0.1 µM	-0.61 ± 0.22
0.3162278 µM	-0.991 ± 0.45
1 µM	-1.25 ± 0.15
3.16228 µM	-0.486 ± 0.41
10 µM	-0.405 ± 0.015
31.6228 µM	-0.218 ± 0.1
100 µM	1.15 ± 0.05

C=C(C)C(N)=O [Methacrylamide]
Conditions	LDH release cytotoxicity [%]
0.03162 µM	0.244 ± 0.55
0.1 µM	-1.11 ± 0.47
0.3162278 µM	-1.39 ± 0.69
1 µM	-1.09 ± 0.82
3.16228 µM	-1.32 ± 1.9
10 µM	-0.285 ± 1.1
31.6228 µM	-0.444 ± 0.94
100 µM	2.64 ± 0.98

CCC(=O)C(CC(C)N(C)C)(c1ccccc1)c1ccccc1 (configuration not stated) [Methadone hydrochloride]
Conditions	LDH release cytotoxicity [%]
0.0229265 µM	-1.18 ± 0.096
0.0725 µM	-0.8 ± 0.26
0.2292651 µM	-1.01 ± 0.75
0.725 µM	-1.59 ± 0.11
2.29265 µM	-0.919 ± 0.09
7.25 µM	-0.638 ± 0.73
22.926513 µM	0.191 ± 1.1
72.5 µM	7.87 ± 0.83

COP(N)(=O)SC (configuration not stated) [Methamidophos]
Conditions	LDH release cytotoxicity [%]
0.03162 µM	5.78 ± 0.77
0.1 µM	2.73 ± 1.8
0.3162278 µM	2.4 ± 2.4
1 µM	3.67 ± 3.3
3.16228 µM	3.79 ± 2.6
10 µM	3.76 ± 1.4
31.6228 µM	5.99 ± 0.16
100 µM	6.57 ± 0.57

C1N2CN3CN1CN(C2)C3 [Methenamine]
Conditions	LDH release cytotoxicity [%]
0.0322552 µM	-1.06 ± 0.69
0.102 µM	-1.56 ± 0.28
0.322552 µM	-1.99 ± 0.53
1.02 µM	-2.63 ± 0.35
3.2255232 µM	-1.7 ± 0.047
10.2 µM	-1.59 ± 0.085
32.2552 µM	-1.01 ± 0.47
102 µM	0.286 ± 0.11

COc1nn(CSP(=S)(OC)OC)c(=O)s1 [Methidathion]
Conditions	LDH release cytotoxicity [%]
0.03162 µM	1.04 ± 0.16
0.1 µM	-1.02 ± 0.18
0.3162278 µM	-0.883 ± 0.25
1 µM	-0.575 ± 0.076
3.16228 µM	0.0624 ± 0.29
10 µM	1.08 ± 1.4
31.6228 µM	0.461 ± 1
100 µM	1.33 ± 0.11

CN1CC=NC1=S [Methimazole]
Conditions	LDH release cytotoxicity [%]
0.03162 µM	-0.734
0.1 µM	-1.69 ± 0.39
0.3162278 µM	-2.04 ± 0.31
1 µM	-2.56 ± 0.11
3.16228 µM	-1.77 ± 0.33
10 µM	-1.81 ± 0.21
31.6228 µM	-1.83 ± 0.38
100 µM	-0.15 ± 0.28

CNC(=O)ON=C(C)SC [Methomyl]
Conditions	LDH release cytotoxicity [%]
0.03162 µM	-0.681 ± 0.27
0.1 µM	-1.04 ± 0.28
0.3162278 µM	-0.724 ± 0.3
1 µM	-0.623 ± 0.49
3.16228 µM	-1.04 ± 0.3
10 µM	-0.128 ± 0.062
31.6228 µM	-1.13 ± 0.27
100 µM	-0.0692 ± 0.37

CN(Cc1cnc2nc(N)nc(N)c2n1)c1ccc(C(=O)NC(CCC(=O)O)C(=O)O)cc1 (configuration not stated) [Methotrexate]
Conditions	LDH release cytotoxicity [%]
0.03162 µM	-2.75 ± 1.4
0.1 µM	-1.02 ± 1.2
0.3162278 µM	0.713 ± 1
1 µM	0.595 ± 0.46
3.16228 µM	2.21 ± 1.1
10 µM	1.79 ± 0.51
31.6228 µM	3.1 ± 0.33
100 µM	3.39 ± 1.3
